In paper PMC6268492, “Synthesis and Antiangiogenic Activity of Novel Gambogic Acid Derivatives” (Molecules, 2012):
Where two headings read alike, the source gives them in different places.

Columns and labels:
[1] = test system: HeLa; test: MTT assay, cell proliferation; assay type: cell-based; conditions: 24 h, read-out: IC50, inhibition of cell proliferation
Experimental: (§1) HepG2, HCT116, HeLa and LO2 cell lines were cultured in DMEM containing 10% fetal bovine serum (FBS), 100 IU/mL penicillin and 100 µg/mL streptomycin; A549 and K562 cell lines were cultured in RPMI 1640 medium containing 10% fetal bovine serum (FBS), 100 IU/mL penicillin and 100 µg/mL streptomycin; Human umbilical vein endothelial cells (HUVECs) were cultured on gelatin-coated culture flasks in M-199 medium with 20% fetal bovine serum (FBS), 2 ng/mL VEGF, 10 ng/mL basic FGF, 100 IU/mL penicillin, and 100 μg/mL streptomycin; all of them were obtained from the American Type Culture Collection (ATCC) and all cell lines were incubated in an atmosphere of 5% CO2 at 37 °C.
(§2) Cells were treated with various concentrations of compound in 96-well culture plates for 24 h in final volumes of 200 μL (5 × 10^3 cells/well). Then 20 μL of MTT solution (5 mg/mL) was added to each well, and cells were incubated for an additional 3 h. Then the medium was carefully removed, and precipitates were dissolved in 150 μL of DMSO, shaken mechanically for 30 min, and then absorbance values at a wavelength of 570 nm were taken on a spectrophotometer (Molecular Devices, Sunnyvale, CA, USA). Values were calculated using percentage of growth versus untreated control. The IC50 was defined as the concentration that caused 50% inhibition of cell proliferation, and was calculated by SAS statistical software.

[2] = test system: A549; test: MTT assay, cell proliferation; assay type: cell-based; conditions: 24 h, read-out: IC50, inhibition of cell proliferation
Experimental: as §1, §2

[3] = test system: K562; test: MTT assay, cell proliferation; assay type: cell-based; conditions: 24 h, read-out: IC50, inhibition of cell proliferation
Experimental: as §1, §2

[4] = test system: HCT116; test: MTT assay, cell proliferation; assay type: cell-based; conditions: read-out: IC50, inhibition of cell proliferation
Experimental: as §1, §2

[5] = test system: HepG2; test: MTT assay, cell proliferation; assay type: cell-based; conditions: 24 h, read-out: IC50, inhibition of cell proliferation
Experimental: as §1, §2

[6] = test system: HUVEC; test: MTT assay, cell proliferation; assay type: cell-based, Human; conditions: 24 h, read-out: IC50, inhibition of cell proliferation
Experimental: Inhibiting the proliferation of ECs is another important strategy for antiangiogenesis. […] As the exposure time of these derivatives was 24 h in the migration assay and 6 h in the tube formation assay, the effect of the incubation for 24 h in the presence of these compounds on HUVECs proliferation was then tested. Cell viability was assessed by the MTT method. We can see from Table 4 that these compounds had different antiproliferative activities.
as §1, §2

[7] = test system: transgenic fli-1: enhanced GFP zebrafish embryos; test: Zebrafish embryo assay: antiangiogenic effects; assay type: in vivo, zebrafish (Danio rerio); conditions: zebrafish embryos
Experimental: As stated previously, zebrafish is regarded as a powerful tool in the study of human diseases. […] In this study, all GA derivatives were incubated with the transgenic friend leukemia integration-1 (fli-1): enhanced GFP zebrafish embryos which carried a fli-1 promoter which can drive the expression of GFP in the whole endothelium.
Figure 1 Effects on neovascularization in zebrafish embryos. The transgenic fli-1: enhanced GFP zebrafish embryos in embryo water (0.2 g/L of instant ocean salt in distilled water) incubated with 1 μM of compounds at 6 h postfertilization (hpf) for 24 h. Zebrafish embryos were imaged (Imager.Z1, magnification: left, 40×; right, 100×).
Using transgenic fli-1: enhanced GFP zebrafish embryos, we investigated the effects of all compounds on angiogenesis. […] At about 6 h post fertilization (hpf), the embryos were sorted in the 6-well plate (six embryos/well), removing dead and unhealthy embryos. Then the embryos were treated with the indicated concentrations of compounds which were added into embryo water. After incubation for 24 or 48 h, the embryos were anesthetized using 0.05% 2-phenoxyethanol in embryo water, quantified and photographed.

[8] = test system: LO2; test: MTT assay, cytotoxicity; assay type: cell-based; conditions: read-out: IC50, inhibition of cell proliferation
Experimental: as §1, §2

Compound	IC50 ([1]; Homo sapiens) [µM]	IC50 ([2]; Homo sapiens) [µM]	IC50 ([3]; Homo sapiens) [µM]	IC50 ([4]; Homo sapiens, HCT-116, 24 h) [µM]	IC50 ([5]; Homo sapiens) [µM]	IC50 ([6]; Homo sapiens) [µM]	antiangiogenic rates ([7]; 1 μM)	inhibition in vivo at 2.5 µM ([7]; Danio rerio, 2.5 μM, vs vehicle (0.05% DMSO), read-out: Anti-angiogenic phenotype) [%]	inhibition in vivo at 10 µM ([7]; Danio rerio, 10 μM, vs vehicle (0.05% DMSO), read-out: Anti-angiogenic phenotype) [%]	IC50 ([8]; Homo sapiens, L02, 24 h) [µM]	IC50 [1] [µM]	IC50 [2] [µM]	IC50 [3] [µM]	IC50 ([4]; 24 h) [µM]	IC50 [5] [µM]	IC50 ([8]; 24 h) [µM]	IC50 [6] [µM]
COc1ccc(-c2csc(NC(=O)/C(C)=C\CC34OC(C)(C)C5CC(C=C6C(=O)c7c(O)c8c(c(CC=C(C)C)c7OC653)OC(C)(CCC=C(C)C)C=C8)C4=O)n2)cc1 (stereo not drawn) [Compound 31, 4-(4-Methoxyphenyl)thiazol-2-gambogamide]	57.9 ± 2.6	61.6 ± 1.73	13.7 ± 0.56	18.9 ± 1.34	49.2 ± 4.31	30.2 ± 2.04	inactive	< 25	25 to 50	–	–	–	–	–	–	–	–
CC(C)=CCCC1(C)C=Cc2c(O)c3c(c(CC=C(C)C)c2O1)OC12C(=CC4CC1C(C)(C)OC2(C/C=C(/C)C(=O)Oc1ccccc1Br)C4=O)C3=O (stereo not drawn) [Compound 17, 2-Bromophenyl gambogate]	> 80	> 80	27 ± 1.41	33 ± 1.27	61.9 ± 2.69	29.9 ± 1.44	–	–	–	72.8 ± 2.84	–	–	–	–	–	–	–
CC(=O)c1ccc(OC(=O)/C(C)=C\CC23OC(C)(C)C4CC(C=C5C(=O)c6c(O)c7c(c(CC=C(C)C)c6OC542)OC(C)(CCC=C(C)C)C=C7)C3=O)c([N+](=O)[O-])c1 (stereo not drawn) [Compound 5, 2-Nitro-4-ethanonephenyl gambogate]	6.37 ± 0.11	5.53 ± 0.4	2.03 ± 0.2	5.47 ± 0.24	9.45 ± 1.42	4.39 ± 0.27	–	–	–	4.03 ± 0.34	–	–	–	–	–	–	–
CC(C)=CCCC1(C)C=Cc2c(O)c3c(c(CC=C(C)C)c2O1)OC12C(=CC4CC1C(C)(C)OC2(C/C=C(/C)C(=O)Oc1cc2ccccc2oc1=O)C4=O)C3=O (stereo not drawn) [Compound 6, Coumarin-3-gambogate]	33.3 ± 1.83	19.7 ± 2.62	5.47 ± 0.15	14.5 ± 1.22	25.8 ± 1.76	14.6 ± 0.34	–	–	–	> 20	–	–	–	–	–	–	–
COc1ccc(OC(=O)/C(C)=C\CC23OC(C)(C)C4CC(C=C5C(=O)c6c(O)c7c(c(CC=C(C)C)c6OC542)OC(C)(CCC=C(C)C)C=C7)C3=O)cc1 (stereo not drawn) [Compound 13, 4-Methoxyphenyl gambogate]	> 80	66.8 ± 4.59	8.05 ± 0.28	17.5 ± 1.59	60.5 ± 4.24	27.7 ± 2.77	–	–	–	–	–	–	–	–	–	–	–
CC(C)=CCCC1(C)C=Cc2c(O)c3c(c(CC=C(C)C)c2O1)OC12C(=CC4CC1C(C)(C)OC2(C/C=C(/C)C(=O)Oc1ccc(C(C)(C)CC(C)(C)C)cc1)C4=O)C3=O (stereo not drawn) [Compound 25, 4-(2,4,4-Trimethylpentan-2-yl)phenyl gambogate]	> 80	> 80	> 80	> 80	> 80	> 80	–	–	–	> 80	–	–	–	–	–	–	–
CC(C)=CCCC1(C)C=Cc2c(O)c3c(c(CC=C(C)C)c2O1)OC12C(=CC4CC1C(C)(C)OC2(C/C=C(/C)C(=O)Oc1ccc(Br)cc1)C4=O)C3=O (stereo not drawn) [Compound 19, 4-Bromophenyl gambogate]	> 80	> 80	> 80	70.2 ± 3.06	> 80	68 ± 4	–	–	–	> 80	–	–	–	–	–	–	–
C=CCc1ccc(OC(=O)/C(C)=C\CC23OC(C)(C)C4CC(C=C5C(=O)c6c(O)c7c(c(CC=C(C)C)c6OC542)OC(C)(CCC=C(C)C)C=C7)C3=O)c(OC)c1 (stereo not drawn) [Compound 3, 4-Allyl-2-methoxyphenyl gambogate]	13.1 ± 0.77	38 ± 3.1	8.18 ± 1.22	18.7 ± 0.97	28.8 ± 2.84	52.7 ± 1.15	–	–	–	–	–	–	–	–	–	–	–
CC(C)=CCCC1(C)C=Cc2c(O)c3c(c(CC=C(C)C)c2O1)OC12C(=CC4CC1C(C)(C)OC2(C/C=C(/C)C(=O)Oc1cccc(C=O)c1)C4=O)C3=O (stereo not drawn) [Compound 15, 3-Formylphenyl gambogate]	62.6 ± 3.12	33 ± 1.5	6.11 ± 0.39	6.8 ± 0.78	10.85 ± 0.06	13.6 ± 1.16	–	–	–	14.8 ± 1.19	–	–	–	–	–	–	–
CC(=O)Nc1ccc(SC(=O)/C(C)=C\CC23OC(C)(C)C4CC(C=C5C(=O)c6c(O)c7c(c(CC=C(C)C)c6OC542)OC(C)(CCC=C(C)C)C=C7)C3=O)cc1 (stereo not drawn) [Compound 30, 4-Acetamidophenyl gambogthioate]	3.43 ± 0.28	1.24 ± 0.09	0.44 ± 0.02	1.33 ± 0.07	1.72 ± 0.03	1.03 ± 0.07	–	–	–	2.84 ± 0.34	–	–	–	–	–	–	–
CC(C)=CCCC1(C)C=Cc2c(O)c3c(c(CC=C(C)C)c2O1)OC12C(=CC4CC1C(C)(C)OC2(C/C=C(/C)C(=O)Oc1cccc(C#N)c1)C4=O)C3=O (stereo not drawn) [Compound 12, 3-Cyanophenyl gambogate]	7.1 ± 1.43	10.7 ± 0.26	1.79 ± 0.08	5.57 ± 0.26	7.8 ± 0.11	7.58 ± 1.36	–	–	–	5.15 ± 1.19	–	–	–	–	–	–	–
CC(C)=CCCC1(C)C=Cc2c(O)c3c(c(CC=C(C)C)c2O1)OC12C(=CC4CC1C(C)(C)OC2(C/C=C(/C)C(=O)Oc1ccc2ccc(=O)oc2c1)C4=O)C3=O (stereo not drawn) [Compound 7, Coumarin-7-gambogate]	16.1 ± 0.55	15.4 ± 2.57	2.5 ± 0.12	6 ± 0.4	10.8 ± 1.1	10.9 ± 0.72	–	–	–	8.28 ± 0.33	–	–	–	–	–	–	–
COCCc1ccc(OC(=O)/C(C)=C\CC23OC(C)(C)C4CC(C=C5C(=O)c6c(O)c7c(c(CC=C(C)C)c6OC542)OC(C)(CCC=C(C)C)C=C7)C3=O)cc1 (stereo not drawn) [Compound 18, 4-(2-Methoxyethyl)phenyl gambogate]	> 80	66.2 ± 1.65	7.52 ± 0.83	2.45 ± 0.15	6.45 ± 0.37	10.4 ± 1.08	–	–	–	15.2 ± 0.72	–	–	–	–	–	–	–
CC(C)=CCCC1(C)C=Cc2c(O)c3c(c(CC=C(C)C)c2O1)OC12C(=CC4CC1C(C)(C)OC2(C/C=C(/C)C(=O)Oc1ccc(C)c([N+](=O)[O-])c1)C4=O)C3=O (stereo not drawn) [Compound 1, 4-Methyl-3-nitrophenyl gambogate]	32.9 ± 1.69	43.5 ± 3.92	10.2 ± 0.48	25.5 ± 1.79	30.8 ± 2.76	45.2 ± 2.64	–	–	–	–	–	–	–	–	–	–	–
CC(C)=CCCC1(C)C=Cc2c(O)c3c(c(CC=C(C)C)c2O1)OC12C(=CC4CC1C(C)(C)OC2(C/C=C(/C)C(=O)n1cccn1)C4=O)C3=O (stereo not drawn) [Compound 33, 1-Gambogyl pyrazole]	4.23 ± 0.39	1.3 ± 0.08	0.53 ± 0.05	1.2 ± 0.09	1 ± 0.06	0.57 ± 0.03	–	–	–	1.75 ± 0.09	–	–	–	–	–	–	–
3-Ethanonephenyl gambogate [Compound 11]	–	–	–	–	–	–	–	–	–	–	3.31 ± 0.24	3.31 ± 0.45	2.09 ± 0.19	3.13 ± 0.3	3.64 ± 0.53	3.94 ± 0.19	3.48 ± 0.18
CC(C)=CCCC1(C)C=Cc2c(O)c3c(c(CC=C(C)C)c2O1)OC12C(=CC4CC1C(C)(C)OC2(C/C=C(/C)C(=O)Oc1c(Br)ccc(F)c1F)C4=O)C3=O (stereo not drawn) [Compound 2, 6-Bromo-2,3-difluorophenyl gambogate]	57 ± 0.62	49.1 ± 5.16	16.1 ± 1.74	45.3 ± 4.2	41.4 ± 3.52	31.9 ± 1.27	–	–	–	–	–	–	–	–	–	–	–
CC(C)=CCCC1(C)C=Cc2c(O)c3c(c(CC=C(C)C)c2O1)OC12C(=CC4CC1C(C)(C)OC2(C/C=C(/C)C(=O)Oc1cccc([N+](=O)[O-])c1)C4=O)C3=O (stereo not drawn) [Compound 8, 3-Nitrophenyl gambogate]	> 80	> 80	17.9 ± 1.38	66.4 ± 1.1	> 80	77.5 ± 3.65	–	–	–	–	–	–	–	–	–	–	–
CC(C)=CCC/C(C)=C/COC(=O)/C(C)=C\CC12OC(C)(C)C3CC(C=C4C(=O)c5c(O)c6c(c(CC=C(C)C)c5OC431)OC(C)(CCC=C(C)C)C=C6)C2=O (stereo not drawn) [Compound 10, Geraniol gambogate]	> 80	> 80	> 80	> 80	> 80	> 80	–	–	–	–	–	–	–	–	–	–	–
